Entries after “also recorded” stand apart in the source; their conditions may differ. Read-outs that look alike come from different tables or passages of the source.
Tests used:
[1] = tested on: bleomycin-induced dermal fibrosis in DBA/2J mice; experiment: Bleomycin-induced dermal fibrosis; format: in vivo
Protocol: Skin fibrosis was induced in two groups of 6-week old DBA/2J mice by local injection of bleomycin. Briefly, 100 microliter of BLM dissolved in 0.9% NaCI at a concentration of 0.5 mg/ml were administered every other day, in well defined areas (1 cm^2) of the upper back. One group of BLM-challenged mice received orally AjA 1 mg/kg/day, dissolved in seed oil. Subcutaneous injections of 100 ul 0.9% NaCI were used as controls. After 21 days, animals were killed by cervical dislocation. The injected skin was removed and processed for analysis. Each treatment group consisted of eight mice. The local ethical committee approved all animal experiments. […].
Three lesional skin samples were taken from every animal of each group and 5 μm skin sections (three for each skin sample) were stained with haematoxylin and eosin. Dermal thickness was calculated at 10× microscopic magnification by measuring the distance between the dermal—epidermal junction and the dermal—subcutaneous fat junction (micrometer) in five randomly selected fields for each skin section. Results were expressed as mean±SD. Two different examiners performed the evaluation blindly.
The collagen content of lesional skin was evaluated by colourimetric quantification of hydroxyproline on three different skin biopsies (3 mm punch) taken from every animal in each group. 15 Absorbencies were measured at 560 nm in triplicate. The results were expressed as μg of hydroxyproline per biopsy (mean±SD).
Skin sections (5 μm) were processed in order to evaluate expression of a smooth muscle actin (α-SMA) (mouse monoclonal antibody) (Santa Cruz Biotechnology, Santa Cruz, Calif., USA) After deparaffinization, skin sections were incubated with 3% bovine serum albumin for 30 minutes to block nonspecific binding, followed by incubation with 3% H2O2 for 5 minutes to block endogenous peroxidase activity. A-SMA staining was performed according to the protocol of manufacturer using M.O.M kit (Vector, UK). Staining was visualized with diaminobenzidine, using a peroxidase substrate kit (Dako, Glostrup Denmark). Cell counts were performed blindly by two different operators, at 40× magnification, in five non-contiguous microscope fields of three sections from each lesional skin sample. Results are expressed as mean±SD of positive spindle-shaped fibroblastic cells per field.

SSc fibroblasts = experiment: Collagen (PIP) concentration in supernatant of SSc fibroblasts; format: cell-based, human; details: for reversal of AjA inhibitory effect on PIP/collagen production by PPAR-γ antagonist: antagonist 10 μM, pre-incubation 15 minutes before AjA
[2] = tested on: SSc and healthy fibroblasts; experiment: Cell viability (MTT assay); format: cell-based, human; details: AjA in concentrations up to 10 pM (so in the source), 24 hours, data not shown
Protocol: SSc and healthy fibroblasts were plated at a density of 100000 cells/well in 24 well plate and treated with AjA at concentrations of 0.1, 1, 5 and 10 μM for 24 hours in presence or absence of GW9662 at concentrations of 1 and 10 μM. Cell metabolic activity was measured by 3-(4,5-dimethylthiazol-2-yl)-2,5-diphenyltetrazolium bromide (MTT) assay. After removal of 100 μl of the growth medium, MTT was added at a final concentration of 3 mg/ml, and the cells were incubated at 37° C. for an additional 4 hours. Formazan crystals were dissolved in DMSO and optical density was measured at 570 nm using a spectrophotometer.

PPAR-γ = PPAR-γ expression by Western blot in SSc fibroblasts; format: cell-based, human; details: AjA 5 microM and 10 microM
Protocol: (§1) SSc and healthy dermal fibroblasts were cultured in DMEM containing 2.5% of fetal calf serum (FCS) for 24 hours before the experiments. Dermal fibroblasts were incubated with AjA (JB Therapeutics, Newton, Mass., USA), dissolved in dimethyl sulfoxide at 0.1, 1, 5 and 10 microM concentrations for 24 hours. Experiments with the PPAR-γ irreversible antagonist GW9662 (Tocris Bioscience, Bristol, UK), 1 and 10 microM, were performed by incubating dermal fibroblasts for 15 minutes before AjA treatment.
After rinsing twice with PBS, cells were lysed with Ripa buffer (Santa Cruz Biotechnology, Santa Cruz, Calif., USA). Subsequently, cell lysates were incubated on ice for 30 minutes and centrifuged at 14,000 g for 20 minutes. Protein concentrations were measured using the Bradford assay (Bio-Rad, Reinach, Switzerland). […] After incubation with horseradish peroxidase (HRP)-conjugated donkey anti-goat antibodies Santa Cruz Biotechnology) at a dilution of 1:10000 for 45 minutes, signals were detected with ECL Western Blotting Detection Reagents (Amersham Bioscience, Freiburg, Germany) and exposure to x-ray film (SuperRX; Fuji, Dusseldorf, Germany). For confirmation of equal loading of proteins, the amount of alpha-tubulin was determined using mouse anti-human a-tubulin antibodies (dilution 1:1,000; Sigma) and HRP-conjugated rabbit anti-mouse antibodies (dilution 1:5000; Santa Cruz). […]

15d-PGJ2 = 15d-PGJ2 supernatant levels (ELISA) of SSc fibroblasts; format: cell-based, human; details: incubation with AjA
Protocol: as §1
(§2) The supernatant was collected and stored at −20° C. prior to and after AjA±GW9662 treatment. An EIA kit (Takara Bio, Otsu, Japan) and ELISA kit (Euroclone, Lugano, Switzerland) were used to assess the procollagen type I carboxy-terminal peptide (PIP) and TGF-β and PGJ2 supernatant levels, respectively. Results are mean±SD of five separate experiments.

TGF-beta = TGF-beta supernatant levels (ELISA) of SSc fibroblasts; format: cell-based, human
Protocol: as §1, §2

[3] = tested on: bleomycin-induced lung fibrosis; experiment: Bleomycin lung fibrosis, Day 21 histology of lung; format: in vivo
CB1 receptor = CB1 receptor (Homo sapiens, UniProt P21554); details: cited from earlier work
CB1 receptor, sequence (P21554 whole entry): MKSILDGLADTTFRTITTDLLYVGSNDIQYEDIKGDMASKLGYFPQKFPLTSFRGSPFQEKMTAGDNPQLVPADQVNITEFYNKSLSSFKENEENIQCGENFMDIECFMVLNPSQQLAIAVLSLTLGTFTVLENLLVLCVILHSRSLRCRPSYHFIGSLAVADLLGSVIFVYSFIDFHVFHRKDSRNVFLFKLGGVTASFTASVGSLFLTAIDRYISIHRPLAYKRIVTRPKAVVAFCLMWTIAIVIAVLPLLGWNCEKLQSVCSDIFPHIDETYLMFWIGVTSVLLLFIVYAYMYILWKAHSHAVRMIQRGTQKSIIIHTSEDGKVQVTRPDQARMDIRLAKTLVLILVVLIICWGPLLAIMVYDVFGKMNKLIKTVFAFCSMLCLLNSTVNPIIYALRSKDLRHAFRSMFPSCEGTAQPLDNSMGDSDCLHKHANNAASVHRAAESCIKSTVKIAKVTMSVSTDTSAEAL

CB2 receptor = CB2 receptor (Homo sapiens, UniProt P34972); details: cited from earlier work
CB2 receptor, sequence (P34972 whole entry): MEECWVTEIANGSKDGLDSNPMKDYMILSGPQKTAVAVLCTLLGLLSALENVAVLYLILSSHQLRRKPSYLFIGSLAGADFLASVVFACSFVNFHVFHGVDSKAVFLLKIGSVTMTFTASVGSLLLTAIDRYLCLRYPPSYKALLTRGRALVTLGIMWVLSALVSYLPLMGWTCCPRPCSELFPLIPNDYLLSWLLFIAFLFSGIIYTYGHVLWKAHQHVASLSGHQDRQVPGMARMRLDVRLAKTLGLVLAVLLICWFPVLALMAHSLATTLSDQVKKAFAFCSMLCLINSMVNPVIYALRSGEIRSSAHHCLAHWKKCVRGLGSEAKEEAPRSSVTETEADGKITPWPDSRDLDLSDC

[4] = target: T1, peroxisome proliferated-activated receptor-γ (PPAR-γ) (Homo sapiens, UniProt P37231); details: cited from earlier work
T1 sequence (P37231 1-505): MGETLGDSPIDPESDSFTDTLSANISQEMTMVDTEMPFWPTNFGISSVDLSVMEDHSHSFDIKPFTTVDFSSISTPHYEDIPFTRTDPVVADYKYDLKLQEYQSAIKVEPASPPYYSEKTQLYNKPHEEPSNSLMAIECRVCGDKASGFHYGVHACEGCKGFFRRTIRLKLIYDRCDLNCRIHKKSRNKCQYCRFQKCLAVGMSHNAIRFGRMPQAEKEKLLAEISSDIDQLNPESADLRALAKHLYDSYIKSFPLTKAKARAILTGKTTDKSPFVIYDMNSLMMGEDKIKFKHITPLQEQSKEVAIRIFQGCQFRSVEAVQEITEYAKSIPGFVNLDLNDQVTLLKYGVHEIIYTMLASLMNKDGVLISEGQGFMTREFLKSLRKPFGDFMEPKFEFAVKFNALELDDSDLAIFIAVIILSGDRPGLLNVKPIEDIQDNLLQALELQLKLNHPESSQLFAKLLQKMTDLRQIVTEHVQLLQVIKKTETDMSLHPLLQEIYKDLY

[5] = tested on: embryogenic fibroblastic 3T3 L1 cells; details: process mediated by PPAR-γ; cited from earlier work
humans = details: doses up to 80 mg/day, cited from earlier work
[6] = AjA 1 mg/kg/day, BLM-challenged mice
[7] = AjA 1 mg/kg/day, after treatment
[8] = AjA 10 pM (so in the source), SSc fibroblasts
[9] = listed as (6aR,10aR)-4-(1,1-dimethylheptyl)-Δ8-tetrahydro-cannabinol-9-carboxylic acid

CCCCCCC(C)(C)c1cc(O)c2c(c1)OC(C)(C)[C@@H]1CC=C(C(=O)O)C[C@@H]21 [AjA, (6aR,10aR)-3-(1,1-dimethylheptyl)-6a,7,10,10a-tetrahydro-1-hydroxy-6,6-dimethyl-6H-Dibenz o(b,d)pyran-9-carboxylic acid]
dermal thickness of lesional skin ([1]; AjA 1 mg/kg/day orally, 21 days, BLM-challenged DBA/2J mice): reduced skin thickness nearly to control levels; also recorded: dermal thickness was equal to control group
hydroxyproline content of lesional skin (collagen deposition) ([1]; AjA 1 mg/kg/day, 21 days, BLM-challenged mice): completely abrogated the collagen deposition induced by BLM; also recorded: dermal thickness was equal to control group
alpha-SMA positive cells, immunohistochemistry [1, 6]: strong downregulation of alpha-SMA positive cells
leukocyte infiltration, ECM accumulation and fat layer replacement in lesional skin (histology) [1, 6]: the subcutaneous leukocyte infiltration, the accumulation of ECM and the fat layer replacement were reduced; also recorded: strongly reduced the leukocyte infiltration
reduction of number of myofibroblasts (α-SMA positive spindle-shaped fibroblastic cells) in lesional skin [1, 6]: up to 26%
body weight, BLM/AjA group vs BLM group [1, 7]: did not differ in terms of body weight
signs of toxicity (ruffled fur, reduced activity) [1, 7]: no other signs of toxicity
supernatant PIP levels, dose dependence (SSc fibroblasts; AjA 0.1, 1, 5 and 10 μM, 24 hours, SSc fibroblasts): dose-dependently decreased the levels of PIP; also recorded: dose-dependent reduction of supernatant PIP levels
inhibition at 10 µM (SSc fibroblasts; Homo sapiens, Fibroblast, AjA 10 μM, 24 hours, SSc fibroblasts supernatant, read-out: mean PIP reduction (maximal inhibition)): ≤ 60%
metabolic activity measured by the MTT assay [2]: not affected
PPAR-γ protein expression in SSc fibroblasts (PPAR-γ): completely restored the expression of PPAR-γ
levels of 15d-PGJ2 in supernatants of SSc fibroblasts (15d-PGJ2): strongly increased the levels of 15d-PGJ2 in dose-dependent manner
duration of significant TGF-beta downregulation (TGF-beta; [8]): ≤ 24 h
time of maximum TGF-beta inhibition (TGF-beta; [8]): 2 h
supernatant TGF-beta (TGF-beta; AjA 5 and 10 microM, SSc fibroblasts): significant reduction of supernatant TGF-beta
time of maximum TGF-beta suppression (TGF-beta; SSc fibroblasts, AjA): 2 h
reduction in TGF-beta concentrations in supernatants from SSc fibroblasts (TGF-beta; incubation with AjA, dose-dependent): up to 50%
lung fibrosis (histology) ([3]; AjA 1 and 5 mg/kg qd x 21 d, bleomycin): fibrosis was significantly inhibited
parenchymal infiltration of leukocytes in lung ([3]; AjA qd x 21 d, more evident in the 5 mg/kg group): parenchymal infiltration of leukocytes was reduced
affinity for CB1 receptor (CB1 receptor): weak ligand
affinity for CB1 receptor (CB1 receptor; [9]): high affinity
affinity for CB2 receptor (CB2 receptor): weak ligand
affinity for CB2 receptor (CB2 receptor; [9]): high affinity
binding to and activation of PPAR-γ [4]: binds to and activates
differentiation of 3T3 L1 cells into adipocytes [5]: stimulates the differentiation of embryogenic fibroblastic 3T3 L1 cells into adipocytes
tolerability in humans (humans; without significant psychotropic effects): well tolerated
chronic neuropathic pain in humans (humans): can reduce chronic neuropathic pain

O=C(Nc1ccccc1)c1cc([N+](=O)[O-])ccc1Cl [GW9662, reference compound]
reversal of AjA inhibitory effect on PIP/collagen production by PPAR-γ antagonist (SSc fibroblasts; SSc fibroblasts): completely reverted
reversal of AjA inhibitory effect on PIP/collagen production by PPAR-γ antagonist (SSc fibroblasts; SSc fibroblasts, listed as GW966): completely prevented the anti-fibrotic effects of AjA
prevention of AjA inhibitory effect on collagen production by PPAR-γ antagonist, dose dependence (SSc fibroblasts; antagonist 1-10 μM pre-incubation): prevented by GW9662 in a dose-dependent manner
